Literature values as cited in patent publication US9186343B2, “Nanoveso™: treatment, biomarkers and diagnostic tests for liver diseases and comorbid diseases” (Nanoveson, LLC, priority 2007, dated 2015).
“And” between values parts separate entries of the source, which are not always exact repeats. Identical values can stand only once.

Columns and labels:
chromaffin granules = details: most effective fusogen of 23 compounds
[1] = system: human prostate cancer cells; details: in vitro at micromolar concentrations
[2] = presence of annexin

In the case of `CCCCC/C=C\C/C=C\C/C=C\C/C=C\CCCC(=O)O` [AA, Arachidonic Acid (n-6 20:4)], the “minimum concentration as fusogen” value (chromaffin granules) is given as 2 ug/ml and 6.6 uM and the “human prostate cancer cell growth” value [1] is given as “effective stimulator”.

B1: annexin: synexin (a.k.a. annexin VII), a Ca2+ binding protein (protein, UniProt P20073 1-488, looked up)
Annexin A7: MSYPGYPPTGYPPFPGYPPAGQESSFPPSGQYPYPSGFPPMGGGAYPQVPSSGYPGAGGYPAPGGYPAPGGYPGAPQPGGAPSYPGVPPGQGFGVPPGGAGFSGYPQPPSQSYGGGPAQVPLPGGFPGGQMPSQYPGGQPTYPSQINTDSFSSYPVFSPVSLDYSSEPATVTQVTQGTIRPAANFDAIRDAEILRKAMKGFGTDEQAIVDVVANRSNDQRQKIKAAFKTSYGKDLIKDLKSELSGNMEELILALFMPPTYYDAWSLRKAMQGAGTQERVLIEILCTRTNQEIREIVRCYQSEFGRDLEKDIRSDTSGHFERLLVSMCQGNRDENQSINHQMAQEDAQRLYQAGEGRLGTDESCFNMILATRSFPQLRATMEAYSRMANRDLLSSVSREFSGYVESGLKTILQCALNRPAFFAERLYYAMKGAGTDDSTLVRIVVTRSEIDLVQIKQMFAQMYQKTLGTMIAGDTSGDYRRLLLAIVGQ
In the case of B1, the “increase of the aggregation rate” value [2] is listed as “up to 100 fold”.
